Assay results from publication PMC10180054, “Design, Synthesis and Biological Evaluation of Novel Pleuromutilin Derivatives Containing 6-Chloro-1-R-1H-pyrazolo[3,4-d]pyrimidine-4-amino Side Chain” (Molecules, 2023).

System: MRSA ATCC 43300
Test: Post-antibiotic effect (PAE)
Type: cell-based, Staphylococcus aureus
Procedure: PAE has been considered as pharmacodynamic assistance which provides a reference for the rational formulation of dosing regimen. PAE refers to the temporary suppression of bacterial growth following transient antibiotic treatment. PAE assays were conducted for compounds 12c and 22c.
PAE is calculated from growth curves on the difference in time required for the number (1 log10 CFU/mL) of drug-exposed and unexposed microbes. […] The PAE values of compounds 12c and 22c increased with increasing incubation time.
PAE of compounds 12c and 22c on MRSA ATCC 43300 was determined using MH broth according to our previous work. The final concentration of MRSA was 1 × 10^6 CFU/mL by dilution with MH broth. Compounds 12c, 22c and tiamulin were supplemented in the suspension at a final concentration of 2 × MIC and 4 × MIC, respectively. The negative control group contained untreated MRSA bacterial cells. The test tubes were incubated with a 37 °C constant temperature vibration incubator for 1 and 2 h. After incubation, the test compound was removed from the sample by diluting 1000-fold with the preheated MH broth. Next, 100 μL of suspension from each culture was 10-fold diluted in sterile saline and inoculated on MH agar plates at 0, 2, 4, 6 and 8 h after inoculation. The number of colonies was calculated after incubation at 37 °C for 24 h. The experiments were performed in triplicate.

## C=C[C@]1(C)C[C@@H](OC(=O)CSc2ccc(Nc3nc(Cl)nc4c3cnn4-c3ccc(F)c(F)c3)cc2)[C@]2(C)[C@H](C)CC[C@]3(CCC(=O)[C@H]32)[C@@H](C)[C@@H]1O [Compound 22c, 22-[4-(6-Chloro-1-(3,4-difluorophenyl)-1H-pyrazolo[3,4-d]pyrimidine-4-yl)amino-Phenylsulfanyl]-22-deoxypleuromutilin]
2 × MIC, exposure for 1 h
  PAE: 0.92 h
2 × MIC, exposure for 2 h
  PAE: 2.18 h
4 × MIC, exposure for 1 h
  PAE: 0.93 h
4 × MIC, exposure for 2 h
  PAE: 2.68 h
